These results are taken from patent publication US9440969B2, “Compounds and methods for kinase modulation, and indications therefor” (PLEXXIKON INC., priority 2009, dated 2016).

Some results are limits rather than exact numbers.

One experiment concerns the target T1, CYP1A2 (Homo sapiens, UniProt P05177).
T1 sequence (P05177 1-516): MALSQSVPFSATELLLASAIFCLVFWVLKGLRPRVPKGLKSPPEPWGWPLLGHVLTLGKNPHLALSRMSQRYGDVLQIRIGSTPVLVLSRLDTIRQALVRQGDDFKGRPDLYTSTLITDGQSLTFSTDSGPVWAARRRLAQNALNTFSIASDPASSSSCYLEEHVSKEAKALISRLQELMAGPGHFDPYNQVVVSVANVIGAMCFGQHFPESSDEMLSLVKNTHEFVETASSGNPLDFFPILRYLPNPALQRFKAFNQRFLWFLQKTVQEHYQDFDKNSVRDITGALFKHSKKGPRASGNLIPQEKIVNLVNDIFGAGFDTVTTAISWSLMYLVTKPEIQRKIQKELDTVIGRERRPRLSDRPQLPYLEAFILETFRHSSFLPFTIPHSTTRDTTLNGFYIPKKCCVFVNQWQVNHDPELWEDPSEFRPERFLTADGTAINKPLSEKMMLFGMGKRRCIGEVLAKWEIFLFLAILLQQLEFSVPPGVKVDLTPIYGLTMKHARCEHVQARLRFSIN
Briefly: CYP1A2 inhibition (fluorescent substrate CEC). The class given is in vitro ADME. As to conditions: read-out: Cyp IC50 (μM) 1A2. On the procedure:
(§1) CYP (Cytochrome P450) enzymes are the major drug metabolizing enzymes present in the liver. The inhibition of CYP enzyme activity (IC50) for each of CYP1A2, CYP2C19, CYP2C9, CYP2D6, CYP3A4(BFC) and CYP3A4(BQ) is determined for compounds, where inhibition of metabolism of a known substrate leads to a decrease in the fluorescence of the metabolized product. The fluorescence of the product is monitored as a function of compound concentration. Compounds are dissolved in dimethyl sulfoxide to a concentration of 100 mM. These are diluted […], into 82 μL of acetonitrile. An 11 μL aliquot of this solution is then added to 204 μL of cofactor mix (1.3% NADPH Regeneration system Solution A, 1.04% NADPH Regeneration system Solution B from BD Biosciences, 5% acetonitrile and 0.05% dimethyl sulfoxide). These are then serially diluted 1:1 (160 μL to 160 μL co-factor mix) for a total of 10 points. A 10 μL aliquot of this final mixture is dispensed into 384 well assay plates and incubated for 10 minutes at 37° C. Enzyme and substrate mix (10 μL; 0.5 pmol CYP1A2/5 μM CEC; 1.0 pmol CYP2C9/75 μM MFC; 0.5 pmol CYP2C19/25 μM CEC; 1.5 pmol CYP2D6/1.5 μM AMMC; 1.0 pmol CYP3A4/50 μM BFC; or 1.0 pmol CYP3A4/40 μM BQ) is added to these assay plates. Assay plates are incubated at 37° C. (CYP1A2-15 min; CYP2C9-45 min; CYP2C19, 2D6 and 3A4-30 min) and read in a Tecan Safire 2 plate reader (CYP1A2, 2C19 and 3A4 409 ex/460 em; CYP2C9 and 2D6 409 ex/530 em). The signal versus compound concentration is used to determine the IC50. The enzymes and substrates for this assay are obtained from BD Biosciences.

Another experiment has as its target CYP2C19 (Homo sapiens, UniProt P33261). Briefly: CYP2C19 inhibition (fluorescent substrate CEC). As to conditions: read-out: Cyp IC50 (μM) 2C19. Type of experiment: in vitro ADME. The protocol: as §1
The target in the next experiment is CYP2D6 (Homo sapiens, UniProt P10635). Description: CYP2D6 inhibition (fluorescent substrate AMMC). Type of experiment: in vitro ADME. The following applies: read-out: Cyp IC50 (μM) 2D6. On the procedure: as §1
The next experiment has as its target CYP3A4(BFC) (Homo sapiens, UniProt P08684). Briefly: CYP3A4 inhibition (substrate BFC). The class given is in vitro ADME. The following applies: read-out: Cyp IC50 (μM) 3A4(BFC). On the procedure: as §1
In the next experiment the target is CYP2C9 (Homo sapiens, UniProt P11712). Description: CYP2C9 inhibition (fluorescent substrate MFC). Type of experiment: in vitro ADME. The following applies: read-out: Cyp IC50 (μM) 2C9. The protocol:
as §1

For the next experiment, the target named is CYP3A4(BQ) (Homo sapiens, UniProt P08684). Description: CYP3A4 inhibition (substrate BQ). Type of experiment: in vitro ADME. As to conditions: read-out: Cyp IC50 (μM) 3A4(BQ). On the procedure: as §1
The target in another experiment is c-Raf-1 (Homo sapiens, UniProt P04049). Description: c-Raf-1 kinase activity assay (AlphaScreen, biotin-MEK1 substrate). As to conditions: 100 μM ATP, 100 nM biotin-MEK1, 45 minutes at room temperature; read-out: Biochemical activity (IC50 μM) c-Raf-1. The method, boiled down:
(§2)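 AlphaScreen detection of phospho-MEK1 uses anti-phospho-MEK1/2 antibody and donor/acceptor beads, incubated 3 h. The kinase step runs 45 min at room temperature with 0.1 ng enzyme, 100 nM biotin-MEK1 and 100 μM ATP in 50 mM HEPES pH 7.0. IC50 is derived from eight compound concentrations.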

In a further experiment the target is B-Raf V600E (Homo sapiens, UniProt P15056, V600E). Description: B-Raf V600E kinase activity assay (AlphaScreen, biotin-MEK1 substrate). The following applies: 100 μM ATP, 100 nM biotin-MEK1, 45 minutes at room temperature, read-out: Biochemical activity (IC50 μM) V600E. The method, boiled down: as §2
A further experiment concerns the target B-Raf (Homo sapiens, UniProt P15056). Briefly: B-Raf kinase activity assay (AlphaScreen, biotin-MEK1 substrate). As to conditions: 100 μM ATP, 100 nM biotin-MEK1, 45 minutes at room temperature; read-out: Biochemical activity (IC50 μM) B-Raf. In a few lines: as §2
Experiment [1] concerns COLO205 colon adenocarcinoma (B-Raf V600E mutation). Description: COLO205 cell growth inhibition (ATPlite luminescence). Type of experiment: cell-based. The following applies: Homo sapiens, COLO 205, 72 h, COLO205 cells, incubated 3 days with compound. The protocol:
Compounds are assessed in a variety of cell based assays. For example human cell lines with B-Raf V600E mutation (A375 melanoma, SKMEL3 melanoma, and COLO205 colon adenocarcinoma), as well as tumorigenic cell lines with wild-type B-RAF (SW620 colon adenocarcinoma) or with Ras mutations (SKMEL2 melanoma and IPC298 melanoma). Similar assays may be used to assess additional tumorigenic cell lines with Ras mutations, including, but not limited to, M202, M207, M243, M244, M296, S117, HCT116, HCT15, DLD1, MiaPaCa, A549, NCI-H23, NCI-H460, HOP62, MDA-MB231, Hs-578T, HL60, MOLT-4, and CCRF-CEM.
On day 1, cells are counted, then centrifuged in a conical tube for 5 minutes at 1000 rpm. The supernatant is removed and cells are re-suspended as follows: • SW620 (ATCC catalog #CCL-27): resuspend in Leibovitz's L-15 medium, 2 mM L-glutamine, 10% fetal bovine serum to 6×10^4 cells/mL. • A375 (ATCC catalog #CRL-1619): resuspend in Dulbecco's modified Eagle's medium, 4 mM L-glutamine, 4.5 g/L D-glucose, 10% fetal bovine serum to 6×10^4 cells/mL. • COLO205 (ATCC catalog #CCL-222): resuspend in RPMI 1640, 2 mM L-glutamine, 1.5 g/L sodium bicarbonate, 4.5 g/L D-glucose, 10 mM HEPES, 1.0 mM sodium pyruvate, 10% fetal bovine serum to 6×10^4 cells/mL. • SKMEL2 (ATCC catalog #HTB-68): resuspend in Minimum Eagle essential medium, 2 mM L-glutamine, 1.5 g/L sodium bicarbonate, 0.1 mM non-essential amino acids, 1.0 mM sodium pyruvate, 10% fetal bovine serum to 6×10^4 cells/mL. • SKMEL3 (ATCC catalog #HTB-69): resuspend in McCoy's 5A medium, 1.5 mM L-glutamine, 15% fetal bovine serum to 6×10^4 cells/mL. • IPC298 (DSMZ catalog #ACC 251): resuspend in RPMI 1640, 2 mM L-glutamine, 10% fetal bovine serum to 6×10^4 cells/mL.
The cells are plated, 50 μL in each well of a 96-well dish (Corning 3610) and incubated at 37° C. in 5% CO2 overnight, cells plated to a final concentration of cells as follows:
On day 2, compound at a maximum concentration of 5 mM is serially diluted 1:3 (e.g. 10 μL with 30 μL dimethyl sulfoxide) for a total of 8 point titration with DMSO as a control. A 1 μL aliquot of each dilution point and control is added to 249 μL growth media and 50 μL is added to a well containing cells, providing 10 μM compound at the maximum concentration point. The cells are incubated for 3 days at 37° C. in 5% CO2.
On day 5, ATPlite 1 step Luminescence Assay System (Perkin Elmer #6016739) is brought to room temperature along with the cell cultures. ATPlite is added 25 μL to each well, shake for 2 minutes, and the cells are incubated at room temperature for 10 minutes, then luminescence is read on Safire reader. The measured luminescence correlates directly with cell number, such that the reading as a function of compound concentration is used to determine the IC50 value.
It is understood that the results of these assays may vary as assay conditions are varied. Inhibition levels determined under the conditions described herein represent a relative activity for the compounds tested under the specific conditions employed. The cell based assays are likely to show variability due to the complexity of the system and the sensitivity thereof to any changes in the assay conditions. […] Results for compounds that are tested and show substantially no inhibition below the highest tested concentration are represented as “-” in the tables below. In some instances, the compounds were not tested in all of the assays, or assay results were not valid, as indicated by NA in the tables below.
Background: In ATP-based viability assays light output follows the ATP content of the culture.

By IC50 is commonly meant the concentration needed to halve the response being measured.

B-Raf V600E, sequence (P15056 whole entry V600E): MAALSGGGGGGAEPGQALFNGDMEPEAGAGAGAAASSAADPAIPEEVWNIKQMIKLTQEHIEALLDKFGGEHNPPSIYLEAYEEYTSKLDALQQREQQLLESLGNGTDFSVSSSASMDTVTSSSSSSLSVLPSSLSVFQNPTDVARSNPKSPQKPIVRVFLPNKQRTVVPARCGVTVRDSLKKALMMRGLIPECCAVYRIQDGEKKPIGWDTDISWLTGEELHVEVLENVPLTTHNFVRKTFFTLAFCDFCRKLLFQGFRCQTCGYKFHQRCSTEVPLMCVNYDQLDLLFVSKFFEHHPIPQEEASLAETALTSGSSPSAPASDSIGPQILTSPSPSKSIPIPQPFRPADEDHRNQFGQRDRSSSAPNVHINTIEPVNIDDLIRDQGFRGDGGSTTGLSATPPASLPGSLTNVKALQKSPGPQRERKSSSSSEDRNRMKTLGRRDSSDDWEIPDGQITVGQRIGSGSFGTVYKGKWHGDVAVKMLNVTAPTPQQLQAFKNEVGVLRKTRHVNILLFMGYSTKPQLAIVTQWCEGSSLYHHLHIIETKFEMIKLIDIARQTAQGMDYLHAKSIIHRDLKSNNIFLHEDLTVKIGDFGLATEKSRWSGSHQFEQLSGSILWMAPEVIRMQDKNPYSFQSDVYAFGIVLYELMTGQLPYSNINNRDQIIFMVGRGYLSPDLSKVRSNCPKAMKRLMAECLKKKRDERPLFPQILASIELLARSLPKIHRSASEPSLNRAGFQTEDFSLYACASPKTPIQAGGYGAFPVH
c-Raf-1, sequence (P04049 whole entry Y340D/Y341D, form open): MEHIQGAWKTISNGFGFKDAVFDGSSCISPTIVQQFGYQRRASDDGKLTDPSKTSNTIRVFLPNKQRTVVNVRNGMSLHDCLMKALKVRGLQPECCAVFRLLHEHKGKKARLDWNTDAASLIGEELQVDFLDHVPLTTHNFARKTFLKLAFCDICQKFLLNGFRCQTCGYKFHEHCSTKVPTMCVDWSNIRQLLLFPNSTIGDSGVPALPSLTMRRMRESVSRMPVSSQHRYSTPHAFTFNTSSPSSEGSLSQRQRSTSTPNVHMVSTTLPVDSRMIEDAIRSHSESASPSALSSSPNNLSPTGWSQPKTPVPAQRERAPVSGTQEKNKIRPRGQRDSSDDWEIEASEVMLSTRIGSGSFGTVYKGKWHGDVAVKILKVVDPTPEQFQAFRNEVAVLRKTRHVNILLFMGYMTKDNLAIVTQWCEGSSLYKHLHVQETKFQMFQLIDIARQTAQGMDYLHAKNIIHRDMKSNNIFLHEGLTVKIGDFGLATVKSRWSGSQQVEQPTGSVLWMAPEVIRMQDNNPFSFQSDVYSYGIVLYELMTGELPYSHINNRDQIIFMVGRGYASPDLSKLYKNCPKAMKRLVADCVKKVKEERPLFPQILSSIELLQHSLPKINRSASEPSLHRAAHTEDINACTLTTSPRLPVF
B-Raf, sequence (P15056 whole entry): as the sequence (P15056 whole entry V600E) above, with E600V counted along it
CYP2C19, sequence (P33261 whole entry): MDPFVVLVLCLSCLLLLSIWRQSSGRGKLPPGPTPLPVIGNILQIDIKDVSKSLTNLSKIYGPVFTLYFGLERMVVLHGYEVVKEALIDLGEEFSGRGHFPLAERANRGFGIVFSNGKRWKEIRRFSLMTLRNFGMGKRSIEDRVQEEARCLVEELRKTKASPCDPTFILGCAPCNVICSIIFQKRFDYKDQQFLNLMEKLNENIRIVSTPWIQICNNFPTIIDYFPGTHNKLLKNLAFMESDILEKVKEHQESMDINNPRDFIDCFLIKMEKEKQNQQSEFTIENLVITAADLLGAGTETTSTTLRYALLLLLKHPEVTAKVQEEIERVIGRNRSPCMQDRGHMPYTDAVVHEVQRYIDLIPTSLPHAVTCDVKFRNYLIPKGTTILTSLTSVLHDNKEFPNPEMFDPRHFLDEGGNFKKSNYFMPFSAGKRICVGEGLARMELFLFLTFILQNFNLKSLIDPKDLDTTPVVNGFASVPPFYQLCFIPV
CYP2D6, sequence (P10635 whole entry): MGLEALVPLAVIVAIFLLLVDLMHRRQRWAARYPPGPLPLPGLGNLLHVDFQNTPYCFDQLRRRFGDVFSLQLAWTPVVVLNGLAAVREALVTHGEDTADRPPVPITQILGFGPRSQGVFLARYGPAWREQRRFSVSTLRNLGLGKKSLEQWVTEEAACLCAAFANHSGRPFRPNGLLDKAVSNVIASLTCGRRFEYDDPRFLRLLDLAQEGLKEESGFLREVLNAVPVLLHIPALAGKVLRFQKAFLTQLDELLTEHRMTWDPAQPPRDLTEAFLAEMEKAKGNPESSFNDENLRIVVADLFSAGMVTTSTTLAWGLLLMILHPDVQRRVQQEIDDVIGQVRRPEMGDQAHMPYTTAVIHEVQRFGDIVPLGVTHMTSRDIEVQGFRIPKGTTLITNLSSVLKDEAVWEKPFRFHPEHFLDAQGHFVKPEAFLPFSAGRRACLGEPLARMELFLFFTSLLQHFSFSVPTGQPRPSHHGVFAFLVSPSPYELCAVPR
CYP2C9, sequence (P11712 whole entry): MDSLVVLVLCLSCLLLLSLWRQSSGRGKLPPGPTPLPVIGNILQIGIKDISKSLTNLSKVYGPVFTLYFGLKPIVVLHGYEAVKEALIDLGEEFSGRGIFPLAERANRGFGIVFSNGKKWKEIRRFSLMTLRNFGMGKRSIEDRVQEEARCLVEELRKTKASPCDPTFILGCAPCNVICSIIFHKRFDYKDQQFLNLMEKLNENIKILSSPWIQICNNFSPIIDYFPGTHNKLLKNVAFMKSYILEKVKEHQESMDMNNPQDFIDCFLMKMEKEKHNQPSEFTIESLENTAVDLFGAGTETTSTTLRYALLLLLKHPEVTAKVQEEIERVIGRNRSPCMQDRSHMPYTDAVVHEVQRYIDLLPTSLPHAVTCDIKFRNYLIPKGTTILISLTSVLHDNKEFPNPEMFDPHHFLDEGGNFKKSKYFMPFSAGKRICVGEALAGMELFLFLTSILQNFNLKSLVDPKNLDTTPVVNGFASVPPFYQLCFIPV
CYP3A4(BFC), sequence (P08684 whole entry): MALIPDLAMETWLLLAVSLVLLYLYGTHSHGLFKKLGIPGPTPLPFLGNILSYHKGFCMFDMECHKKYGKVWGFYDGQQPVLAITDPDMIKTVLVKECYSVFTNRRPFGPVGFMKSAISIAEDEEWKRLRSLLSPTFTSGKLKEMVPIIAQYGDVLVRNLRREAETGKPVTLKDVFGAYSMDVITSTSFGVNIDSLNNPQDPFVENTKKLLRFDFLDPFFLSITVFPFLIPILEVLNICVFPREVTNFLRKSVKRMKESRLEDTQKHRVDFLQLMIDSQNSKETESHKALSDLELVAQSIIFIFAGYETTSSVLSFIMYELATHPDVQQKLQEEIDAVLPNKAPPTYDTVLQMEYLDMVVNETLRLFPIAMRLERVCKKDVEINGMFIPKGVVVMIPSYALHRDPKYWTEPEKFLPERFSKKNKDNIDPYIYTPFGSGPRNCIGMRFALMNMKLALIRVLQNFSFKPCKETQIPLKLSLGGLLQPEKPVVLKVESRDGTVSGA
CYP3A4(BQ), sequence (P08684 whole entry): as above

For the molecule `CCCS(=O)(=O)Nc1ccc(F)c(C(=O)c2c[nH]c3ncc(-c4ccc5ncccc5c4)cc23)c1F` [P-0034, Propane-1-sulfonic acid [2,4-difluoro-3-(5-quinolin-6-yl-1H-pyrrolo[2,3-b]pyridine-3-carbonyl)-phenyl]-amide], the IC50 on CYP1A2, on CYP2C19, at CYP2D6, on CYP3A4(BFC), on CYP2C9 and on CYP3A4(BQ) was > 10 µM each time.

For `CCCS(=O)(=O)Nc1ccc(F)c(C(=O)c2c[nH]c3ncc(-c4ccc(Cl)c(C(N)=O)c4)cc23)c1F` [P-1700, 2-Chloro-5-{3-[2,6-difluoro-3-(propane-1-sulfonylamino)-benzoyl]-1H-pyrrolo[2,3-b]pyridin-5-yl}-benzamide], the IC50 was < 0.1 µM at c-Raf-1, < 0.1 µM at B-Raf V600E, < 0.1 µM at B-Raf and < 1 µM in experiment [1].

For `CCCS(=O)(=O)Nc1ccc(F)c(C(=O)c2c[nH]c3ncc(-c4ccc5c(c4)CNC5=O)cc23)c1F` [P-1701, Propane-1-sulfonic acid {2,4-difluoro-3-[5-(1-oxo-2,3-dihydro-1H-isoindol-5-yl)-1H-pyrrolo[2,3-b]pyridine-3-carbonyl]-phenyl}-amide], the IC50 on c-Raf-1 is < 0.1 µM; on B-Raf V600E it was < 0.1 µM; at B-Raf it was < 0.1 µM; in [1], < 1 µM.

Take `CCCS(=O)(=O)Nc1ccc(F)c(C(=O)c2c[nH]c3ncc(-c4ccc5c(c4)C(=O)NC5)cc23)c1F` [P-1702, Propane-1-sulfonic acid {2,4-difluoro-3-[5-(3-oxo-2,3-dihydro-1H-isoindol-5-yl)-1H-pyrrolo[2,3-b]pyridine-3-carbonyl]-phenyl}-amide]: the IC50 at c-Raf-1 is < 0.1 µM; on B-Raf V600E, < 0.1 µM; on B-Raf, < 0.1 µM; in experiment [1], < 1 µM.

In the case of `CCCS(=O)(=O)Nc1ccc(F)c(C(=O)c2c[nH]c3ncc(-c4ccc5c(c4)CC(=O)N5)cc23)c1F` [P-1703, Propane-1-sulfonic acid {2,4-difluoro-3-[5-(2-oxo-2,3-dihydro-1H-indol-5-yl)-1H-pyrrolo[2,3-b]pyridine-3-carbonyl]-phenyl}-amide], the IC50 was < 0.1 µM on c-Raf-1, < 0.1 µM on B-Raf V600E, < 0.1 µM at B-Raf and < 1 µM in experiment [1].

On to `CCCS(=O)(=O)Nc1ccc(F)c(C(=O)c2c[nH]c3ncc(C(=O)Nc4cccnc4)cc23)c1F` [P-1801, 3-[2,6-Difluoro-3-(propane-1-sulfonylamino)-benzoyl]-1H-pyrrolo[2,3-b]pyridine-5-carboxylic acid pyridin-3-ylamide], for which the IC50 is < 0.1 µM at c-Raf-1, < 0.1 µM on B-Raf V600E, < 0.1 µM at B-Raf and > 1 µM in experiment [1].
